The values below come from US7011844B2 (Alza Corporation, priority 1996, dated 2006).

One data set relates to skin. Put plainly: skin irritation on transdermal administration (inventors' finding). It is filed as in vivo. The text has this: According to this preferred embodiment, a pharmaceutically acceptable salt of fluoxetine is coadministered with an anti-irritant, preferably a corticosteroid such as hydrocortisone.
Other salts which provide the necessary flux and irritation levels can be determined in accordance with the principles of the teachings of this invention.

The procedure of data set [1]: The experiment was carried out using standard glass diffusion cells which consist of a donor compartment with a 7.5 ml capacity, and a receptor compartment with a 22 ml capacity. A circular piece of epidermis was placed in each diffusion cell (permeation area=2.27 cm^2) in a horizontal position between a lower capped receptor compartment and an upper capped donor compartment. The receptor compartment has both a venting tube (uncapped) and a sampling port (capped). The stratum corneum side of the epidermis faced the donor compartment. An O-ring was positioned between the epidermis and the donor compartment, and a clamp held the compartments together. The receptor solution, 22 ml of 0.001 M phosphoric acid solution, pH 3.2, was added to each receptor compartment. The cells were placed in a temperature controlled water bath shaker at 35° C. and allowed to come to temperature before the donor solution was added.
At each time interval, the receptor solution was removed from the test cell and replaced with an equal volume of fresh receptor solution previously equilibrated at 35° C. […] From the drug concentration and the volume of the receptor solutions, the area of permeation and the time interval, the flux of the drug through the epidermis was calculated as follows: (drug concentration×volume of receptor)/(area×time)=flux (μg/cm^2·hr).
Transdermal fluxes were obtained using human epidermis at 35° C. in standard diffusion cells using the procedure set forth in Example 1. FIG. 6 graphically depicts the results.
Transdermal fluxes were obtained using human epidermis at 35° C. in standard diffusion cells using the procedure set forth in Example 1.

For data set [2] the following is noted: administered orally as fluoxetine hydrochloride (Prozac), 10 mg or 20 mg daily doses, cited from earlier work.

As for fluoxetine acetate, the “skin irritation when administered transdermally” value in the data set on skin (transdermal administration, base or salt form as labelled) was “reduced irritation levels”.

As to `CNCCC(Oc1ccc(C(F)(F)F)cc1)c1ccccc1` (racemic) [fluoxetine, (±)-N-methyl-γ-[4-(trifluoromethyl)-phenoxy] benzenepropanamine], the “effect of methyl laurate by itself on fluoxetine flux” value in data set [1] (10% fluoxetine base in oil/petrolatum with 0-10% methyl laurate, FIG. 6) was “did not significantly increase”. The “increase of fluoxetine flux by addition of GML” value in data set [1] (10% fluoxetine base in oil/petrolatum with 2.5-10% GML, FIG. 5) is “two to five fold”. Also, the “effect of the combination of methyl laurate and GML on fluoxetine flux” value in data set [1] (10% fluoxetine base in oil/petrolatum with 5% methyl laurate and 0-10% GML, FIG. 7, compared with GML or methyl laurate individually) is recorded as “synergistic effect”. The “skin irritation when administered transdermally” value in the data set on skin (in vivo) is “moderately to severely irritating”. The “elimination half-life, averaging” value in data set [2] (average) is 48 to 72 h. In addition, the elimination half-life in data set [2] was 24 to 220 h.
